Key:
[1] = Solubility of crosslinker in common solvents and water; type: physicochemical; settings: chloroform, methylene chloride, acetone, ethyl acetate, isopropanol, etc.
Source text: The peaks at d 7.78 ppm (m, 12H), 7.46 ppm (m, 9H), 6.98 ppm (m, 6H) were the typical signals from 4-substituted benzophenone. The peak at d 4.35 ppm (m, 6H) was assigned to the protons of methylene connected to phenoxy group. The peak at d 4.13 ppm (m, 9H) was a combination of 6 protons of 3 methylene groups connected to nitrogen atom and 3 protons from 3 methine groups. The peak at d 3.00 ppm (s, 3H) corresponded to hydroxyl groups.
The peaks at 7.49˜7.79 ppm (m, 18H) were the typical signals from 4-substituted benzophenone. The peak at 4.66 ppm (s, 4H) was assigned to the protons of methylene connected to benzophenone group. The peak at 3.70 ppm (m, 16H) corresponded to ethylene groups.
The peaks at 7.26˜7.79 ppm (m, 18H) were the typical signals from 4-substituted benzophenone. The peak at 4.64 ppm (s, 4H) was assigned to the protons of methylene connected to benzophenone group. The peak at 3.66 ppm (m, 24H) corresponded to ethylene groups.

[2] = Static contact angle with water on coated PVC coverslips (goniometer); type: physicochemical
Procedure: A coating solution was made up from the crude glycol linker product isolated in Example 3 (0.5 mg/ml glycol in isopropanol with 50 mg/ml polyvinylpyrrolidone (Kollidon K30, BASF, N.J.)). 100 μl of the coating solution was applied to PVC coverslips (Fisher Scientific, Pittsburgh, Pa.) and allowed to dry overnight. All pieces were illuminated for a set time in a uv crosslinker (UVP CL-1000, Upland, Calif., 254 nm light, 120,000 μJ/cm^2) from 0 to 10 minutes. Pieces were then rinsed for 30 minutes in deionized water with gentle agitation. The static contact angle with water was taken on a goniometer (MicroVu 400, Santa Ana, Calif.), three 3 μl drops of water were measured, three times apiece. Contact angles are shown below.
A coating solution of purified triazine crosslinker isolated in Example 1 was made by adding 44 mg of crosslinker to 1 ml of acetone, diluted with 19 ml of isopropanol, then adding 1000 mg of poly(vinylpyrrolidone) (PVP) (Kollidon K30, BASF, N.J.). The resulting solution was thoroughly mixed on an orbital shaker for four hours. 18 samples were prepared by adding 100, 200, or 500 μl of coating solution onto PVC Coverslips (Fisher Scientific, Pittsburgh, Pa.) (n=6 for each condition), then air drying. The sample pieces were illuminated for five minutes in a uv chamber (UVP CL-1000, Upland, Calif., 254 nm light, 120,000 μJ/cm^2), then rinsed for four hours in deionized water with gentle agitation. 4 pieces of each variable were then stained with Congo red dye to determine the presence of PVP. For each coating condition, two of the four stained pieces were then rubbed with a wet glove to determine durability of the coating to simple rubbing. The remaining two unstained sample pieces for each coating condition were then assessed for static contact angle by threefold measurement of three 3 μl drops of water on a goniometer (MicroVu 400, Santa Ana, Calif.).

O=C(c1ccccc1)c1ccc(OCC(O)Cn2c(=O)n(CC(O)COc3ccc(C(=O)c4ccccc4)cc3)c(=O)n(CC(O)COc3ccc(C(=O)c4ccccc4)cc3)c2=O)cc1 (stereo not shown) [Example 1]
solubility in most common solvents [1]: soluble in most common solvents | Contact angle (rinse only) ([2]; triazine crosslinker/PVP K30, Coating 100 ml): 35.3 ± 3.4 | Contact angle (rinse only) ([2]; triazine crosslinker/PVP K30, Coating 200 ml): 38.7 ± 2.6 | Contact angle (rinse only) ([2]; triazine crosslinker/PVP K30, Coating 500 ml): 29.2 ± 2.2
